Measurements published in patent publication US11447466B2, “Substituted indole compounds useful as inhibitors of TLR7/8/9” (BRISTOL-MYERS SQUIBB COMPANY, priority 2017, dated 2022).

Experiments:
Assay type in all cases: cell-based
human TLR7 = target: T1, human TLR7 (Homo sapiens, UniProt Q9NYK1); test: TLR7 inhibition reporter assay (HEK-Blue SEAP reporter, gardiquimod stimulation); details: HEK-Blue cells overexpressing human TLR7, SEAP reporter, gardiquimod 7.5 μM, 22 hour incubation
T1 construct: host or cells: HEK-Blue cells
T1 sequence (Q9NYK1 27-1049): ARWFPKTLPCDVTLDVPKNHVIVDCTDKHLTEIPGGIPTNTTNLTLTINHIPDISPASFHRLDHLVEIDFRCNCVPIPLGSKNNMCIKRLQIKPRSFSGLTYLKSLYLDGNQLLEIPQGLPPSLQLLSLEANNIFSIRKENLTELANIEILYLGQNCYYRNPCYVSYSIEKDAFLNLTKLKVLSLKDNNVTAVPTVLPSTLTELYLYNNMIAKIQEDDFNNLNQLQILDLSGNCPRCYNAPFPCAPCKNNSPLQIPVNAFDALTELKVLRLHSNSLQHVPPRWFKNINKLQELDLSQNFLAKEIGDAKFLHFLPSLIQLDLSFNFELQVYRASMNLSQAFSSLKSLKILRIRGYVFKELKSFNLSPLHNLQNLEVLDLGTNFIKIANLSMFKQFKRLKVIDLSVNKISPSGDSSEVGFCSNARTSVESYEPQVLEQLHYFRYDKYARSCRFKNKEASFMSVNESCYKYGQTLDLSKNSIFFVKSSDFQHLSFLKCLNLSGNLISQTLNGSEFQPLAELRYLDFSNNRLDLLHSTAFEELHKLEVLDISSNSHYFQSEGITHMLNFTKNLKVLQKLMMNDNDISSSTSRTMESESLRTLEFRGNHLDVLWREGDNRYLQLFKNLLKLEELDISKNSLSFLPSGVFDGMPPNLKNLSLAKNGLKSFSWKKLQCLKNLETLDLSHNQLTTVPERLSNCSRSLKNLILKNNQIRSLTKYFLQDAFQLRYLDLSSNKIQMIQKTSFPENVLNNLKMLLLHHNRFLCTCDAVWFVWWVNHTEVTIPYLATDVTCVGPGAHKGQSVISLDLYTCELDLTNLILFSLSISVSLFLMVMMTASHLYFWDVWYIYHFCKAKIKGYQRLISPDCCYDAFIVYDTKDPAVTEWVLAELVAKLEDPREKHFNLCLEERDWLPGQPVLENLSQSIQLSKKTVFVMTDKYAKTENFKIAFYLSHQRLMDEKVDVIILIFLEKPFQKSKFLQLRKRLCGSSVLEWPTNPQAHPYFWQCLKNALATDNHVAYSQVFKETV
Procedure, shortened: (§1)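 Compound treatment: 30 min, RT, 0.05 nM–50 μM final. Agonist: TLR7 gardiquimod 7.5 μM; TLR8 R848 15.9 μM; TLR9 ODN2006 5 nM. Incubation 22 h, 37 °C, 5% CO2. Readout SEAP, HEK-Blue Detection.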

human TLR8 = target: T2, human TLR8 (Homo sapiens, UniProt Q9NR97); test: TLR8 inhibition reporter assay (HEK-Blue SEAP reporter, R848 stimulation); details: HEK-Blue cells overexpressing human TLR8, SEAP reporter, R848 15.9 μM, 22 hour incubation
T2 construct: host or cells: HEK-Blue cells
T2 sequence (Q9NR97 27-1041): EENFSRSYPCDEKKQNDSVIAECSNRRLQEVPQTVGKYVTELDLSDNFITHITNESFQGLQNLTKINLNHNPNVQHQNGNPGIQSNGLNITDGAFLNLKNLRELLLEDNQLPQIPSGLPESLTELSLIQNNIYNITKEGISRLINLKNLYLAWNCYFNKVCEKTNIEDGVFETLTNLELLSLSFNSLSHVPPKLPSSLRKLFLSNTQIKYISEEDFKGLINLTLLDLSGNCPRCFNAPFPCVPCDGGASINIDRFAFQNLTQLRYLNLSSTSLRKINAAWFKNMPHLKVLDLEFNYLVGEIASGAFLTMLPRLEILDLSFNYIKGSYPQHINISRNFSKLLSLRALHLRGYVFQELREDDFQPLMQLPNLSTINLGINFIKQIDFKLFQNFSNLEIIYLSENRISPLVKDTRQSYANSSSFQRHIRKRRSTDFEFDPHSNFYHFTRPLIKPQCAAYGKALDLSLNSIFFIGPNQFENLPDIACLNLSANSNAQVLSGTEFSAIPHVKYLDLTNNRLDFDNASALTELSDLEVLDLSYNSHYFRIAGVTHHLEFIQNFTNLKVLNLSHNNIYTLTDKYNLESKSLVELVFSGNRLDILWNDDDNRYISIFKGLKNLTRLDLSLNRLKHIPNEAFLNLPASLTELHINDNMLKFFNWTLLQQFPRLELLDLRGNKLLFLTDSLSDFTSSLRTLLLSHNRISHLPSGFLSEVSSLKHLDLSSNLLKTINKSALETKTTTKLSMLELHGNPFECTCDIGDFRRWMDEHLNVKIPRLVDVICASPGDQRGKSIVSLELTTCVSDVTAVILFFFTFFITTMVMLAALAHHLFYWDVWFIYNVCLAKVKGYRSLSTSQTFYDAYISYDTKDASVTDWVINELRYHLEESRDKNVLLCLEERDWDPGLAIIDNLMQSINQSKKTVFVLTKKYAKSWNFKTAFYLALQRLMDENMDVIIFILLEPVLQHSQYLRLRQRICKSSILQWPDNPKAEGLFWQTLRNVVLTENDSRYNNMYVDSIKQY
Procedure, shortened: as §1

human TLR9 = target: T3, human TLR9 (Homo sapiens, UniProt Q9NR96); test: TLR9 inhibition reporter assay (HEK-Blue SEAP reporter, ODN2006 stimulation); details: HEK-Blue cells overexpressing human TLR9, SEAP reporter, ODN2006 5 nM, 22 hour incubation
T3 construct: host or cells: HEK-Blue cells
T3 sequence (Q9NR96 26-1032): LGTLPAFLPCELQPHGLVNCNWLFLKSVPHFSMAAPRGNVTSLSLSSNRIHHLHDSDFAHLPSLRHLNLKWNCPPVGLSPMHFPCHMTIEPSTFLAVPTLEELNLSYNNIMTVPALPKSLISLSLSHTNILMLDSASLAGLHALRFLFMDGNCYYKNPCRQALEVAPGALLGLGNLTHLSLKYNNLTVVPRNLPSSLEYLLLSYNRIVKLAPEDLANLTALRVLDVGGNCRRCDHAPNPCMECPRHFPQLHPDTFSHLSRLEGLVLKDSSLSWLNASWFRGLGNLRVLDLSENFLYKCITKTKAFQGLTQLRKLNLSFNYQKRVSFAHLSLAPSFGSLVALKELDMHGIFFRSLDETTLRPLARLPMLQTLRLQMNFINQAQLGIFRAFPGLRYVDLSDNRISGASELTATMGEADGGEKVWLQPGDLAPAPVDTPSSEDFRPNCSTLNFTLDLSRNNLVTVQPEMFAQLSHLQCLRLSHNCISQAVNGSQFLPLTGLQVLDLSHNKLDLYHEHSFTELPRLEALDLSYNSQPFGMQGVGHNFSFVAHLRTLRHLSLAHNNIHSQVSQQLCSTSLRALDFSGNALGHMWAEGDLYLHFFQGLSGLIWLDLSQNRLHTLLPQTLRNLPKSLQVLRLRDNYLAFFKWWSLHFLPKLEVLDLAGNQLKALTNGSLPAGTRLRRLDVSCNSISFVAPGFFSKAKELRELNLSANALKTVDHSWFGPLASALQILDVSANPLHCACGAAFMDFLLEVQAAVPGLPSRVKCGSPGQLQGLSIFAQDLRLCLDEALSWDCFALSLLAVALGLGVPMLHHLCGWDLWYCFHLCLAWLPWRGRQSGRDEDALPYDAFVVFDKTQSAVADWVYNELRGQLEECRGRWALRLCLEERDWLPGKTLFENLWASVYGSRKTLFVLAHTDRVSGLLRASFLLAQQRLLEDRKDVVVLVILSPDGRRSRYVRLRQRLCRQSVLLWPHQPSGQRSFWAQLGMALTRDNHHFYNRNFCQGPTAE
Procedure, shortened: as §1

Compound	IC50 (human TLR7) [µM]	IC50 (human TLR8) [µM]	IC50 (human TLR9) [µM]
Cc1cc(-c2[nH]c3ccc(C4CCN(C(=O)CN(C)C)CC4)cc3c2C(C)C)cn(C)c1=O [Example 271, 5-(5-(1-(2-(dimethylamino)acetyl)piperidin-4-yl)-3-isopropyl-1H-indol-2-yl)-1,3-dimethylpyridin-2(1H)-one]	0.0053	0.0083	13.5
Cc1c(-c2[nH]c3ccc(C4CCN(C(=O)CN(C)C)CC4)cc3c2C(C)C)cc(C#N)c(=O)n1C [Example 273, 5-(5-(1-(dimethylglycyl)piperidin-4-yl)-3-isopropyl-1H-indol-2-yl)-1,6-dimethyl-2-oxo-1,2-dihydropyridine-3-carbonitrile]	0.0902	0.016	2.08
Cc1c(-c2[nH]c3ccc(C4CCN(C(=O)CN(C)C)CC4)cc3c2C(C)C)cn(C)c(=O)c1C#N [Example 274, 5-(5-(1-(dimethylglycyl)piperidin-4-yl)-3-isopropyl-1H-indol-2-yl)-1,4-dimethyl-2-oxo-1,2-dihydropyridine-3-carbonitrile]	0.183	0.0153	1.59
COc1cc(-c2[nH]c3ccc(C4CCN(C(=O)CN(C)C)CC4)cc3c2C(C)C)c(C)n(C)c1=O [Example 275, 5-(5-(1-(dimethylglycyl)piperidin-4-yl)-3-isopropyl-1H-indol-2-yl)-3-methoxy-1,6-dimethylpyridin-2(1H)-one]	0.194	0.0957	3.19
COc1c(C)c(-c2[nH]c3ccc(C4CCN(C(=O)CN(C)C)CC4)cc3c2C(C)C)cn(C)c1=O [Example 276, 5-(5-(1-(dimethylglycyl)piperidin-4-yl)-3-isopropyl-1H-indol-2-yl)-3-methoxy-1,4-dimethylpyridin-2(1H)-one]	0.0522	0.0802	4.76
COCc1cc(-c2[nH]c3ccc(C4CCN(C(=O)CN(C)C)CC4)cc3c2C(C)C)cn(C)c1=O [Example 277, 5-(5-(1-(dimethylglycyl)piperidin-4-yl)-3-isopropyl-1H-indol-2-yl)-3-(methoxymethyl)-1-methylpyridin-2(1H)-one]	0.0093	0.021	15.6
Cc1c(-c2[nH]c3ccc(C4CCN(C(=O)CN(C)C)CC4)cc3c2C(C)C)cn(C)c(=O)c1Cl [Example 278, 3-chloro-5-(5-(1-(dimethylglycyl)piperidin-4-yl)-3-isopropyl-1H-indol-2-yl)-1,4-dimethylpyridin-2(1H)-one]	0.0053	0.021	3.2

Results, then the compound that gave them:

IC50 (human TLR7) [µM]	IC50 (human TLR8) [µM]	IC50 (human TLR9) [µM]	Compound
0.0231	0.0059	7.06	Cc1cc(-c2[nH]c3ccc(C4CCN(C(=O)CN(C)C)CC4)cc3c2C(C)C)c(C)n(C)c1=O [Example 279, 5-(5-(1-(dimethylglycyl)piperidin-4-yl)-3-isopropyl-1H-indol-2-yl)-1,3,6-trimethylpyridin-2(1H)-one]
0.0061	0.009	4.57	Cc1c(-c2[nH]c3ccc(C4CCN(C(=O)CN(C)C)CC4)cc3c2C(C)C)cn(C)c(=O)c1C [Example 280, 5-(5-(1-(dimethylglycyl)piperidin-4-yl)-3-isopropyl-1H-indol-2-yl)-1,3,4-trimethylpyridin-2(1H)-one]
0.0474	0.0296	5.7	CCn1cc(-c2[nH]c3ccc(C4CCN(C(=O)CN(C)C)CC4)cc3c2C(C)C)c(C)c(C)c1=O [Example 281, 5-(5-(1-(dimethylglycyl)piperidin-4-yl)-3-isopropyl-1H-indol-2-yl)-1-ethyl-3,4-dimethylpyridin-2(1H)-one]
0.0052	0.007	6.27	CCn1cc(-c2[nH]c3ccc(C4CCN(C(=O)CN(C)C)CC4)cc3c2C(C)C)cc(C)c1=O [Example 282, 5-(5-(1-(dimethylglycyl)piperidin-4-yl)-3-isopropyl-1H-indol-2-yl)-1-ethyl-3-methylpyridin-2(1H)-one]
0.512	0.0468	6.25	Cc1c(-c2[nH]c3ccc(C4CCN(C(=O)CN(C)C)CC4)cc3c2C(C)C)nn(C)c(=O)c1C [Example 283, 6-(5-(1-(dimethylglycyl)piperidin-4-yl)-3-isopropyl-1H-indol-2-yl)-2,4,5-trimethylpyridazin-3(2H)-one]
0.0065	0.0218	1.66	Cc1cc(-c2[nH]c3ccc(C4CCN(C(=O)CN(C)C)CC4)cc3c2C(C)C)cn(Cc2ccccc2)c1=O [Example 284, 1-benzyl-5-(5-(1-(dimethylglycyl)piperidin-4-yl)-3-isopropyl-1H-indol-2-yl)-3-methylpyridin-2(1H)-one]
0.0146	0.0991	3.41	Cc1cc(-c2[nH]c3ccc(C4CCN(C(=O)CN(C)C)CC4)cc3c2C(C)C)cn(CC(C)C)c1=O [Example 285, 5-(5-(1-(dimethylglycyl)piperidin-4-yl)-3-isopropyl-1H-indol-2-yl)-1-isobutyl-3-methylpyridin-2(1H)-one]
